# Results taken from paper PMC12603982 (Angewandte Chemie (International Ed. in English), 2025).
# Read-outs that look alike come from different tables or passages of the source. Starred links: 1 amine or outer side, 2 acyl side, 3 side chain; linkers in the order of their positions; H or OH if unused. Positions of bridges follow the written chain, without caps; N, C: chain ends. Non-standard residues stand in square brackets, D forms with d. Residues, ends and D or L forms follow the SMILES beside them. Groups on a side chain read outwards from the residue. *: point of attachment. X3 = CCN1C(=CC=CC=CC2=[N+](CCCCCC(=O)*)c3ccc(S(=O)(=O)[O-])cc3C2(C)C)C(C)(C)c2cc(S(=O)(=O)O)ccc21; X1 = CCN1C(=CC=CC2=[N+](CCCCCC(=O)*)c3ccc(S(=O)(=O)O)cc3C2(C)C)C(C)(C)c2cc(S(=O)(=O)[O-])ccc21; X4 = CCN1C(=CC=CC2=[N+](CCCCCC(=O)*)c3ccc(S(=O)(=O)[O-])cc3C2(C)C)C(C)(C)c2cc(S(=O)(=O)O)ccc21; d(εLys) = N[C@H](CCCCN[*:1])C(=O)[*:2]; PEG5 = NCCOCCOCCOCCOCCOCCC(=O)O; Orn = NCCC[C@H](N)C(=O)O; Mpa = O=C(O)CCS
# Assays:
# hOTR [1] = target: T1, hOTR (Homo sapiens, UniProt P30559); set-up: method as in PMID 8126695; settings: cited from earlier work
# T1 construct: expressed in transfected cells
# T1 sequence (P30559 1-389): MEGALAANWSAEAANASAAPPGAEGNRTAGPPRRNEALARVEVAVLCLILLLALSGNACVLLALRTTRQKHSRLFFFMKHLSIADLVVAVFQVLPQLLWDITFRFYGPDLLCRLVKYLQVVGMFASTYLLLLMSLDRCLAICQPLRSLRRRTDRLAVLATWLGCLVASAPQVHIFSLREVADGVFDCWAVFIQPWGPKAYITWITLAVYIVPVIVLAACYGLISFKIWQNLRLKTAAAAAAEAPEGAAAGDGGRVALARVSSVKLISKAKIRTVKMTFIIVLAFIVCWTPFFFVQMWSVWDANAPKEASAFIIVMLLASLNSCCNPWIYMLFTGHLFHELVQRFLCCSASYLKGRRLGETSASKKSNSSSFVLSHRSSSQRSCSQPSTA
# hOTR-GFP in HEK293 cells [2] = target: T2, hOTR-GFP in HEK293 cells (Homo sapiens, UniProt P30559); experiment: hOTR-GFP internalization and tracer uptake, confocal microscopy after fixation/ICC; type: cell-based; set-up: expressed in transfected cells; settings: for hOTR-GFP internalization / Tracer retention after ICC protocols: 100 nM; for Tracer retention after ICC protocols: 1 h stimulation, formaldehyde fixation, PBS washing; for Tracer signal after prolonged stimulation: 24 h treatment, post-fixation ICC
# T2 sequence (P30559 1-389): T1 sequence (P30559 1-389)
# Source text: To validate the application scope of our tracers for biological systems and post‐hoc imaging, we used HEK293 cells stably overexpressing human OTR or V1aR, tagged with a C‐terminal fused green fluorescent protein to visualize receptor trafficking (hOTR‐GFP or hV1aR‐GFP, respectively).
# subsequently washed with PBS and processed for immunocytochemistry.
# Immunocytochemistry and imaging. Unspecific protein binding was quenched with 5% normal donkey serum
# (Jackson ImmunoResearch), 2% bovine serum albumin (Sigma-Aldrich, Merck), and 0.2% Triton X-100 (Sigma-
# Aldrich, Merck) in PBS. Next, cells were exposed to primary antibody cocktails containing FITC-conjugated goat-
# anti-GF (1:2000, Sigma-Aldrich, Merck) and mouse pCREB (1:300, Sigma-Aldrich, Merck) in PBS with 2%
# normal donkey serum, 0.1% BSA, and 0.2% Triton X-100 overnight at 4°C. After three PBS washing steps, wells
# were incubated with secondary antibody cocktails (1:400, Jackson Immuno Research) containing suitable
# were mounted with glycerol gelatin (Sigma-Aldrich, Merck) and imaged on a Zeiss LSM 780/880 confocal
# microscope (Zeiss). Images were analyzed and equally contrasted for visualization with ZEN Pro (Zeiss) and
# hOTR [3] = target: T1, hOTR; experiment: Radioligand displacement and saturation binding, membranes of HEK293 cells stably expressing hOTR, [3H]-OT; settings: [3H]-OT, mean ± SD, duplicates, at least three independent experiments
# Procedure: (§1) Membrane preparation for radioligand assays. HEK293 cells were used for stable expression of GFP-tagged
# (§2) human OTR, V1aR, V1bR, and V2R isoforms and transient expression of murine OTR, V1aR, V1bR, and V2R
# (§3) isoforms. Cell culture work was performed under sterile conditions with DMEM high glucose containing 10%
# (§4) FBS, and 50 U/mL P/S. Cells were cultured in 10 cm diameter cell culture dishes at 37°C in a humidified
# (§5) atmosphere with 5% CO2, and cells were passaged at 70-90% confluency.
# (§6) medium of stable cell lines at 0.5 mg/mL to sustain selection pressure, and cells were harvested at 90% confluency
# (§7) for membrane preparation. For transient expression of murine receptors, 60% confluent wild-type HEK293 cells
# (§8) were transfected using the jetPRIME transfection reagent according to the manufacturer’s protocol and harvested
# (§9) 48 h post-transfection. For membrane preparation, cells were washed with ice-cold PBS pH 7.4, scraped into fresh
# (§10) PBS on ice, and centrifuged at 4°C and 178 g for 10 min. The pellet was resuspended in a TRIS buffer solution
# ice-cold water bath sonicator. The obtained solution was centrifuged for 20 min at 54,192 g and 4°C. The obtained
# pellet was resuspended in TRIS buffer without protease inhibitors, homogenized with an ultrasonicator, aliquoted,
# and stored at -80°C until further use. A BCA assay was used to determine the protein concentration of the
# Radioligand displacement and saturation experiments. Assay solutions consisting of competing ligand,
# radioligand, and membrane preparation were incubated for 1 h at 37°C. Standard binding buffer solution (50 mM
# TRIS, 5 mM MgCl2, 0.1% BSA, pH 7.4) was used to prepare all dilutions; the final assay volume was 200 µL.
# concentrations were 8 μg/vial for hOTR, 5 μg/vial for hV1aR, and 3 μg/vial for hV1bR and hV2R, respectively , and
# 4 μg/vial for mOTR, 1.5 μg/vial for m V1aR, 3 μg/vial for mV 1bR, and 10 μg/vial for mV 2R. To assess non-specific
# Specific binding was determined by
# subtraction of the non-specific binding from the total binding. In radioligand displacement experiments, semi -
# logarithmically spaced concentrations of respective test ligands were applied to determine K i values based on
# assessed Kd values of radiotracers and by fitting the data to a three -parameter logistic Hill equation and applying
# the Cheng and Prusoff approximation. 10 In case of human receptors from stable cell lines, Kd and Bmax values were
# In case of murine receptors from transient
# was performed using GraphPad Prism (version 9.5.1) . After incubation, membranes were filtered and washed on
# a Skatron Cell Harvester using polyethyleneimine -coated glass fiber filters (type B, soaked in 0.1% aqueous
# 1 mM MgCl2, pH 7.4, 4°C). The soaked filter pieces were transferred into counter vials, and 2 mL of scintillation
# cocktail (LSC Universalcocktail) was added to each vial. After 1 h incubation at 25°C on a shaker, radioligand
# concentration was determined using a Tri -Carb liquid scintillation analyzer.
# response curves were obtained from radioligand displacement experiments of membrane preparations of HEK293
# Values were normalized to the percentage
# of maximum binding (i.e., no competing ligand present). Specific binding was obtained from the subtraction of
# non-specific binding from total binding. K i values were derived from one-site-fitted competition binding curves.
# [4] = target: hV1aR-GFP in HEK293 cells (Homo sapiens, UniProt P37288); experiment: Tracer signal and internalization in hV1aR-GFP HEK293 cells post ICC; settings: 100 nM
# [5] = system: parent HEK293 cells lacking hOTR; settings: 100 nM
# [6] = system: CREB phosphorylation via hOTR-GFP; experiment: In vitro phosphorylation assay (pCREB) in hOTR-GFP HEK293 cells; type: cell-based, human; settings: range 1 nM to 1 µM
# hOTR-GFP in HEK293 cells [7] = target: T2, hOTR-GFP in HEK293 cells; experiment: Live single-particle tracking (TIRFM, uPAINT) of hOTR
# Procedure: We first exposed hOTR‐GFP cells to 10 and 100 nM of tracer (11) during acquisition with a ZEISS Lattice SIM microscope (Movies S1 and S2). […] To further disentangle the dynamics of our tracer‐mediated OTR engagement and trafficking, we evaluated its applicability in single‐particle tracking (SPT) in living cells. We cultured HEK293 (parent cells) and HEK293 cells stably expressing hOTR‐GFP (HEK293‐hOTR‐GFP) and performed total internal reflection microscopy (TIRFM) SPT universal point accumulation imaging in nanoscale topography (uPAINT) following the addition of 1 nM of tracer (10). […] This concentration was selected to facilitate the detection and tracking of single molecules of the fluorescent agonist tracer following binding to hOTR at the plasma membrane by uPAINT. […] We first assessed the number of tracks (indicative of the number of single molecules detected/tracked). […] We quantified the mean squared displacement of each trajectory to calculate its apparent diffusion coefficient. The diffusion coefficient of each trajectory of the tracer bound to hOTR was plotted as a frequency distribution (Figure 7b2 ).
# Live cell imaging. For 3D live cell imaging, attached and serum -starved HEK293-hOTR-GFP cells in 96-well
# glass bottom plates were imaged on a ZEISS Lattice SIM Microscope using a 40x oil objective and SIM 2 post- […]
# hV2R = target: T3, hV2R (Homo sapiens, UniProt P30518); experiment: Radioligand displacement and saturation binding, membranes of HEK293 cells stably expressing hV2R, [3H]-VP
# T3 construct: expressed in transfected cells; membrane preparation
# Procedure: as §1, §2, §3, §4, §5, §6, §7, §8, §9, §10
# (§11) ice-cold water bath sonicator. The obtained solution was centrifuged for 20 min at 54,192 g and 4°C. The obtained […]
# Specific binding was determined by […]
# (§12) assessed Kd values of radiotracers and by fitting the data to a three -parameter logistic Hill equation and applying […]
# (§13) concentration was determined using a Tri -Carb liquid scintillation analyzer. […]
# hV1bR = target: T4, hV1bR (Homo sapiens, UniProt P47901); experiment: Radioligand displacement and saturation binding, membranes of HEK293 cells stably expressing hV1bR, [3H]-VP
# T4 construct: expressed in transfected cells; membrane preparation
# T4 sequence (P47901 1-424): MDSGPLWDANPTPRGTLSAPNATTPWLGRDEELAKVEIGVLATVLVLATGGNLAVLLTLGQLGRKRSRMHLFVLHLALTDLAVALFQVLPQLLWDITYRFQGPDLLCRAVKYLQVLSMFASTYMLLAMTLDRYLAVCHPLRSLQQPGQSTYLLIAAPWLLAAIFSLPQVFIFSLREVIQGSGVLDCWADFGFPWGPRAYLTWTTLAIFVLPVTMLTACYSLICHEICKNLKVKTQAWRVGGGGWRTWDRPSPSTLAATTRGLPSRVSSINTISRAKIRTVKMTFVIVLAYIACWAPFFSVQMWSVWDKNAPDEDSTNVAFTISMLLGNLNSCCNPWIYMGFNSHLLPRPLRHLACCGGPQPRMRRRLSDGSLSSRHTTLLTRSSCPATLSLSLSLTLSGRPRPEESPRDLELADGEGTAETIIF
# Procedure: as §1, §2, §3, §4, §5, §6, §7, §8, §9, §10, §11
# Specific binding was determined by […]
# as §12, §13
# [8] = system: rat embryonic hippocampal neurons; experiment: Tracer uptake in primary rat hippocampal neurons; type: cell-based; settings: 100 nM, 1 h; E17.5 neurons cultured 14 days
# Procedure: Finally, we evaluated whether tracer (11) is applicable in primary cells endogenously expressing OTR.
# Primary UtSMC and hippocampal neuronal cultures.
# Muscle Cell Basal Medium 2 (PromoCell), including supplements (PromoCell) and P/S (Gibco) at 37°C and 5%
# CO2. Cells were trypsinized with 0.1% Trypsin/EDTA (Gibco) and plated on glass -bottom 96-well plates (CellVis)
# at a density of 10,000 cells/well in full growth medium. The next day, cells were stimulated with tracer ( 11), OTA ,
# dissociated with flame -polishe d Pasteur pipettes in Hank’s balanced salt solution (HBSS, Gibco). Tissue pieces
# were subsequently enzymatically dissociated with 0.1% Trypsin/EDTA (Gibco) in Neurobasal A (NBA, Gibco)
# containing 1,000U/mL DNase (Sigma) for 5 min at 37°C. Cells were triturated with flamed Pasteur pipettes,
# filtered through a 40 µm nylon mesh ( Thermo Fisher Scientific ), centrifuged at 200 g for 5 min, and washed up to
# three times in NBA containing P/S (Gibco), GlutaMax (Gibco) , and B27 supplement (Gibco). Cells were plated at
# 20,000 cells/well on PDL -coated (Sigma) glass -bottom black 96 -well microscopy plates (Cellvis) and grown at
# 37°C with 5% CO 2. Half of the medium was replaced every 3 -4 days. After 13 -14 days in vitro , neuronal cultures
# were exposed to 100 nM tracer ( 11) for one hour, with or without 30-min pretreatment with 10 µM of the peptide
# antagonist OTA. […]
# hV1aR = target: T5, hV1aR (Homo sapiens, UniProt P37288); experiment: Radioligand displacement and saturation binding, membranes of HEK293 cells stably expressing hV1aR, [3H]-VP
# T5 construct: expressed in transfected cells
# T5 sequence (P37288 whole entry): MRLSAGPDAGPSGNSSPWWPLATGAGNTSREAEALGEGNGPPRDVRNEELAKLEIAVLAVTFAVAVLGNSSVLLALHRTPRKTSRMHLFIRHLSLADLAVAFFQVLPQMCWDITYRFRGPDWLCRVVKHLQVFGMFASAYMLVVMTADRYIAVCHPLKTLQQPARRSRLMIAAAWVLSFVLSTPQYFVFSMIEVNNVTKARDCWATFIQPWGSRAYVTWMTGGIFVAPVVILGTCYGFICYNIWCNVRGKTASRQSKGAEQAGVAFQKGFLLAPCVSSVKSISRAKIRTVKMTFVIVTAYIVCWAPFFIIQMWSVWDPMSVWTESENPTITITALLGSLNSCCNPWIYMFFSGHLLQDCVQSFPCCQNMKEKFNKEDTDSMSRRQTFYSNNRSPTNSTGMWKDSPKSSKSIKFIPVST
# Procedure: as §1, §2, §3, §4, §5, §6, §7, §8, §9, §10, §11
# Specific binding was determined by […]
# as §12, §13
# T3 sequence (P30518 whole entry): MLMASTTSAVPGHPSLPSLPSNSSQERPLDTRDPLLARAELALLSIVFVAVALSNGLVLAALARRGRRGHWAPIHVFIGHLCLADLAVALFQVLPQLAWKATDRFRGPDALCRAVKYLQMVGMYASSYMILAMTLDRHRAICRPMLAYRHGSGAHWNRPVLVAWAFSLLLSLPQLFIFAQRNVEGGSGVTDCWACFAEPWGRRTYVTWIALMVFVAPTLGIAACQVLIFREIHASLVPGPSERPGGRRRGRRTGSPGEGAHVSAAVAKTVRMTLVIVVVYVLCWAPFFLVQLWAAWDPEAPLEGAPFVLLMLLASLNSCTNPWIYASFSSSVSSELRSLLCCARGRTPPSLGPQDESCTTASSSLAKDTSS
# Sequence of hV1aR-GFP in HEK293 cells (P37288 whole entry): as the sequence (P37288 whole entry) above
structure (smiles),measurement,setting,value
"Cc1ccccc1N1CCN(S(=O)(=O)C[C@]23CC[C@H](C[C@@H]2NC(=O)[C@@H](N)CCS(C)(=O)=O)C3(C)C)CC1 [L368,899, reference compound]",IC50,hOTR [1],26 nM
same,Effect of antagonist pretreatment on tracer (11) uptake,"hOTR-GFP in HEK293 cells [2]; 10 µM, 30 min pretreatment",completely prevented tracer (11) uptake
"CC[C@H](C)[C@@H]1NC(=O)[C@H](Cc2ccc(O)cc2)NC(=O)CCSSC[C@@H](C(=O)N2CCC[C@H]2C(=O)N[C@@H](CCCNC(=O)CCOCCOCCOCCOCCOCCNC(=O)CCCCC[N+]2=C(C=CC=C3N(CC)c4ccc(S(=O)(=O)[O-])cc4C3(C)C)C(C)(C)c3cc(S(=O)(=O)O)ccc32)C(=O)NCC(N)=O)NC(=O)[C@H](CC(N)=O)NC(=O)[C@H](CCC(N)=O)NC1=O [Compound 4, d(Orn)^8OT‐[PEG5‐Cy3s]^8] ([Mpa]YIQNCP[Orn]([PEG5-X1])G-NH2; disulfide 1-6)",Ki,hOTR [3]; read-out: Ki hOTR,1.5 ± 0.6 nM
"CC[C@H](C)[C@@H]1NC(=O)[C@H](Cc2ccc(O)cc2)NC(=O)CCSSC[C@@H](C(=O)N2CCC[C@H]2C(=O)N[C@@H](CCCNC(=O)CCOCCOCCOCCOCCOCCNC(=O)[C@H](N)CCCCNC(=O)CCCCC[N+]2=C(C=CC=C3N(CC)c4ccc(S(=O)(=O)[O-])cc4C3(C)C)C(C)(C)c3cc(S(=O)(=O)O)ccc32)C(=O)NCC(N)=O)NC(=O)[C@H](CC(N)=O)NC(=O)[C@H](CCC(N)=O)NC1=O [Compound 8, d(Orn)^8OT‐[PEG5‐k^ε‐Cy3s]^8] ([Mpa]YIQNCP[Orn]([PEG5-d(εLys)-X1])G-NH2; disulfide 1-6)",Fluorescent signals and internalization in hV1aR-containing cells,[4],displayed fluorescent signals and internalization
same,Cy3s signal accumulation in hOTR-expressing cells,"hOTR-GFP in HEK293 cells [2]; post ICC, normalized to control",significant concentration‐dependent accumulation
CC[C@H](C)[C@@H]1NC(=O)[C@H](Cc2ccc(O)cc2)NC(=O)CCSSC[C@@H](C(=O)N2CCC[C@H]2C(=O)N[C@@H](CCCNC(=O)[C@H](N)CCCCNC(=O)[C@H](N)CCCCNC(=O)CCCCC[N+]2=C(C=CC=CC=C3N(CC)c4ccc(S(=O)(=O)O)cc4C3(C)C)C(C)(C)c3cc(S(=O)(=O)[O-])ccc32)C(=O)NCC(N)=O)NC(=O)[C@H](CC(N)=O)NC(=O)[C@H](CCC(N)=O)NC1=O [Compound 5] ([Mpa]YIQNCP[Orn]([d(εLys)-d(εLys)-X3])G-NH2; disulfide 1-6),Internalization in parent HEK293 cells,[5],nor was it internalized into the cytoplasm
same,pCREB induction in parent HEK293 cells,[5],did not affect pCREB induction
same,Concentration from which CREB phosphorylation was observed,[6],≥ 10 nM
same,Concentration from which tracer accumulation and GFP internalization were observed,hOTR-GFP in HEK293 cells [2]; hOTR-GFP HEK293 cells,≥ 10 nM
"CC[C@H](C)[C@@H]1NC(=O)[C@H](Cc2ccc(O)cc2)NC(=O)CCSSC[C@@H](C(=O)N2CCC[C@H]2C(=O)N[C@@H](CCCNC(=O)[C@@H](CC(=O)O)NC(=O)CCOCCOCCOCCOCCOCCNC(=O)CCCCC[N+]2=C(C=CC=CC=C3N(CC)c4ccc(S(=O)(=O)O)cc4C3(C)C)C(C)(C)c3cc(S(=O)(=O)[O-])ccc32)C(=O)NCC(N)=O)NC(=O)[C@H](CC(N)=O)NC(=O)[C@H](CCC(N)=O)NC1=O [Compound 10, d(Orn)^8OT‐[d‐PEG5‐Cy5s]^8] ([Mpa]YIQNCP[Orn]([dD-PEG5-X3])G-NH2; disulfide 1-6)",Average (apparent) diffusion coefficient,"hOTR-GFP in HEK293 cells [7]; 1 nM tracer, HEK293-hOTR-GFP, 50 Hz, tracer bound to hOTR, mean ± SEM",0.206 ± 0.017 µm^2 s^−1
same,Average number of tracks (per cell),"hOTR-GFP in HEK293 cells [7]; HEK293-hOTR-GFP cells, N=9 cells, 3 independent experiments",4884 ± 1718
"CC[C@H](C)[C@@H]1NC(=O)[C@H](Cc2ccc(O)cc2)NC(=O)CCSSC[C@@H](C(=O)N2CCC[C@H]2C(=O)N[C@@H](CCCNC(=O)CCOCCOCCOCCOCCOCCNC(=O)CCOCCOCCOCCOCCOCCNC(=O)[C@H](N)CCCCNC(=O)CCCCC[N+]2=C(C=CC=C3N(CC)c4ccc(S(=O)(=O)O)cc4C3(C)C)C(C)(C)c3cc(S(=O)(=O)[O-])ccc32)C(=O)NCC(N)=O)NC(=O)[C@H](CC(N)=O)NC(=O)[C@H](CCC(N)=O)NC1=O [Compound 9, d(Orn)^8OT‐[PEG5‐PEG5‐k^ε‐Cy3s]^8] ([Mpa]YIQNCP[Orn]([PEG5-PEG5-d(εLys)-X4])G-NH2; disulfide 1-6)",Ki,hOTR [3]; read-out: Ki hOTR,1.5 ± 0.5 nM
"CC[C@H](C)[C@@H]1NC(=O)CCSSC[C@@H](C(=O)N2CCC[C@H]2C(=O)N[C@@H](CCCNC(=O)[C@@H](CC(=O)O)NC(=O)CCOCCOCCOCCOCCOCCNC(=O)[C@H](N)CCCCNC(=O)CCCCC[N+]2=C(C=CC=C3N(CC)c4ccc(S(=O)(=O)[O-])cc4C3(C)C)C(C)(C)c3cc(S(=O)(=O)O)ccc32)C(=O)NCC(N)=O)NC(=O)[C@H](CCC(N)=O)NC(=O)[C@H](Cc2ccc(O)cc2)NC(=O)[C@H](CC(N)=O)NC1=O [Scrambled tracer (SCR), dCINYQCP(Orn)G‐[d‐PEG5‐k^ε‐Cy3s]^8] ([Mpa]INYQCP[Orn]([dD-PEG5-d(εLys)-X1])G-NH2; disulfide 1-6)",Ki,hOTR [3]; Ki hOTR,> 10000 nM
same,Ki,hV2R,> 10000 nM
same,Ki,hV1bR,> 10000 nM
same,hOTR-GFP internalization,hOTR-GFP in HEK293 cells [2],did not induce hOTR‐GFP internalization or accumulate in the cell cytoplasm
same,Tracer uptake in rat hippocampal neurons,[8],not taken up by neurons
same,Ki,hV1aR,> 10000 nM
"CC[C@H](C)[C@@H]1NC(=O)[C@H](Cc2ccc(O)cc2)NC(=O)CCSSC[C@@H](C(=O)N2CCC[C@H]2C(=O)N[C@@H](CCCNC(=O)CCOCCOCCOCCOCCOCCNC(=O)CCCCC[N+]2=C(C=CC=CC=C3N(CC)c4ccc(S(=O)(=O)O)cc4C3(C)C)C(C)(C)c3cc(S(=O)(=O)[O-])ccc32)C(=O)NCC(N)=O)NC(=O)[C@H](CC(N)=O)NC(=O)[C@H](CCC(N)=O)NC1=O [Compound 3, d(Orn)^8OT‐[PEG5‐Cy5s]^8] ([Mpa]YIQNCP[Orn]([PEG5-X3])G-NH2; disulfide 1-6)",hOTR-GFP internalization,hOTR-GFP in HEK293 cells [2],significant hOTR‐GFP internalization
same,Tracer retention after ICC protocols,hOTR-GFP in HEK293 cells [2],washout after ICC protocols
same,Tracer signal after prolonged stimulation,hOTR-GFP in HEK293 cells [2],scarcely detectable
"CC[C@H](C)[C@@H]1NC(=O)[C@H](Cc2ccc(O)cc2)NC(=O)CCSSC[C@@H](C(=O)N2CCC[C@H]2C(=O)N[C@@H](CCCNC(=O)CCOCCOCCOCCOCCOCCNC(=O)[C@H](N)CCCCNC(=O)CCCCC[N+]2=C(C=CC=CC=C3N(CC)c4ccc(S(=O)(=O)O)cc4C3(C)C)C(C)(C)c3cc(S(=O)(=O)[O-])ccc32)C(=O)NCC(N)=O)NC(=O)[C@H](CC(N)=O)NC(=O)[C@H](CCC(N)=O)NC1=O [Compound 7, d(Orn)^8OT‐[PEG5‐k^ε‐Cy5s]^8] ([Mpa]YIQNCP[Orn]([PEG5-d(εLys)-X3])G-NH2; disulfide 1-6)",hOTR-GFP internalization,hOTR-GFP in HEK293 cells [2],significant hOTR‐GFP internalization
same,Tracer retention after ICC protocols,hOTR-GFP in HEK293 cells [2],remained present and detectable
same,Tracer signal after prolonged stimulation,hOTR-GFP in HEK293 cells [2],Signal intensity was increased
